Measurements reported in patent publication US20260027073A1, “USE OF SMALL-MOLECULE COMPOUND HAVING NAPHTHYLAMINE STRUCTURE” (HANGZHOU PHECDAMED CO., LTD., priority 2023, published 2026).

Experiments:
[1] = system: Mesenchymal stem cells (MSC) differentiated from normal human pluripotent stem cells (iPSC); assay: Senescence of normal human derived mesenchymal stem cells; type: cell-based; settings: 10 μM
Experimental: Mesenchymal stem cells (MSC) differentiated from normal human pluripotent stem cells (iPSC) were taken for culture, and the experiment was divided into three groups: young cells cultured for 6 generations, labeled as Con-Y; senescent cells cultured for 16 generations, labeled as Con-O; and the administration group, to which 10 μM TJ01-013 was added during the process of culture, similarly cultured up to the 16th generation, and labeled as Con-O+TJ01-013, and after the end of the treatment, all cells were placed under the microscope to observe the morphology of the cells, and the percentage of SA-β-gal+ cells was count. The levels of the DNA damage marker γ-H2AX and the heterochromatin modification H3K9me3 after TJ01-013 treatment were detected by immunofluorescence technique (procedure described previously).

[2] = system: DSS-induced enteritis mice; assay: DSS-induced inflammatory bowel disease; type: in vivo, C57BL/6J mice
Experimental: Eight-week-old C57BL/6J male mice were randomly divided into […], of which, G1 blank control group (8 mice), G2 positive control group (intraperitoneal injection of infliximab 10 mg/kg, 8 mice), G3 group (intraperitoneal injection of small-molecule drug TJ01-013, 5 mg/kg, 12 mice), G4 group (intraperitoneal injection of small-molecule drug TJ01-013, 10 mg/kg, 12 mice) and G5 group (intraperitoneal injection of small-molecule drug TJ01-013, 10 mg/kg, 12 mice). The configuration method of intraperitoneal injection drug was 5% DMSO+30% PEG400+65% ddH2O, the small-molecule compound was first dissolved in 5% DMSO, and then 30% PEG400 and 65% H2O were added sequentially, after 2 weeks of acclimatization, 2% DSS solution was given as drinking water for 6 days, and then was replaced with normal drinking water. During the experiment, the mice were injected intraperitoneally with the corresponding concentration of small-molecule compound every day; and the mice were recorded daily for weight change, fecal shape and blood in stool. During the experiment, the fecal shape and blood in stool were scored, and the disease activity index was calculated on day 3th, day 6th, and day 8th.
At the end of the experiment, after the mice were put to death with CO2, all the intestinal segments from the cecum to the anus were cut, photographed and measured for length.
The middle about 1 cm intestinal segment was taken into the embedding box and immersed in 4% paraformaldehyde, fixed and immersed for 72 h to prepare pathological specimens for HE staining, and the histopathological results were scored; tissue embedding, sectioning and HE staining were performed as follows:
The remaining intestinal segments were washed with pre-cooled saline using a 50 mL syringe, and after washing out the remaining liquid in the intestinal lumen, the tissues were cut into pieces with small scissors and mixed evenly, wrapped in tin foil and then rapidly frozen in liquid nitrogen, and all the operations were controlled to be completed within 10 minutes after the death of the mice. The tissues were lysed by Trizol, and RNA was extracted according to the instructions of Trizol; the obtained RNA was subjected to reverse transcription reaction with the Reverse Transcription Kit from ABI company; SYBR Green method was used to detect the inflammatory factors such as Cxcl1, G-CSF, IL6, IL-1β, S100A8, and TNF-α in the reversed transcription products, and the housekeeping gene Actin was used as an internal reference, and calculated and analyzed by 2-ΔΔCt method.

[3] = system: LPS-induced sepsis in mice; assay: LPS-induced sepsis survival; type: in vivo, C57 mice; settings: 8th day; 10 mg/kg intraperitoneal once a day; LPS alone about 20%; FIG. 33
Experimental: A constructed preclinical sepsis model is a LPS-induced sepsis in mice. Injection of purified LPS into mice by intraperitoneal route or intravenous route can lead to activation of the innate immune system and simulate fulminant Gram-negative bacterial infections, the specific modeling method is as follows: 20-25 g C57 mice were selected, and 20 mg/kg LPS was injected intraperitoneally according to the body weight (the LPS was dissolved with PBS), and the experiment was divided into three groups, a model control group (LPS), a positive control treatment group (prednisone, 10 mg/kg), TJ01-013 treatment group (TJ01-013, 10 mg/kg), the mode of administration was intraperitoneal injection, the volume of administration was 5 ml/kg, the frequency of administration was once a day, and the biological deaths and changes in body weights of the mice were observed and recorded every day, and the mice were regarded as physiologically dead if their body weights decreased by 20% or more compared with that before the administration of LPS. Survival curves were plotted based on deaths observed up to 8 days after administration.

[4] = vs model control group, FIG. 23
[5] = vs model control group, FIG. 24

For `O=C(O)C[S+]([O-])c1cc(NS(=O)(=O)c2ccc(Br)cc2)c2ccccc2c1O` (stereo not shown) [I-1], the “percentage of SA-β-gal-positive cells” value ([1]; 16th generation, vs Con-O, FIG. 51) was “significantly decreased”, the “level of DNA damage marker γ-H2AX” value ([1]; FIG. 52) was “significantly reduced” and the “expression level of heterochromatin-modified H3K9me3” value ([1]; FIG. 53) was “restored its expression level to some extent”. The Histopathological scores ([2]; FIG. 23) was “significantly reduced the pathological changes”, the “weight loss of the mice” value ([2]; intraperitoneal injection during DSS induction, FIG. 20) was “slowing down of the weight loss” and the disease activity index ([2]; intraperitoneal injection during DSS induction, FIG. 21) was “reduction of the disease activity index”. The colorectal length ([2]; vs model control group, FIG. 22) was “significantly greater”, the “colorectal tissue morphology (HE staining)” value [2, 4] was “more intact” and the “inflammatory infiltration of colorectal tissue” value [2, 4] was “reduced”. The “Cxcl1 expression level in colorectal tissue (q-PCR)” value [2, 5] was “significantly reduced”, the “G-CSF expression level in colorectal tissue (q-PCR)” value [2, 5] was “significantly reduced” and the “IL6 expression level in colorectal tissue (q-PCR)” value [2, 5] was “significantly reduced”. The “IL-1β expression level in colorectal tissue (q-PCR)” value [2, 5] was “significantly reduced”, the “S100A8 expression level in colorectal tissue (q-PCR)” value [2, 5] was “significantly reduced” and the “TNF-α expression level in colorectal tissue (q-PCR)” value [2, 5] was “significantly reduced”. For the same molecule, the survival rate [3] was 80%.
